In one test the test system is Bax degradation activity. The test can be described thus: cell-free Bax degradation assay, inhibitor added to MCF-7 cell extract. In kind it is biochemical, human. Conditions: 10-minute preincubation of MCF-7 cell extract with inhibitor (100 mM per FIG. 9C legend), 37° C., 4 h. The method, then:
(§1) FIGS. 9A-9F show Bax degradation depends on ubiquitination, proteasome and ATP. (FIG. 9A) Jurkat cells (0 h) were treated with either 50 μM LLnV or 10 μM lactacystin, followed by preparation of Bax immunoprecipitates (with clone 6A7), which were immunoblotted with an ubiquitin antibody. Positions of putative ubiquitinated Bax proteins (p47, p55) are indicated at left. The nature of the ˜30 kDa and ˜84 kDa remains unclear. (FIG. 9B) The [^35S]-labeled Bax (upper) or Bcl-2 (lower) protein (1 μl) were incubated at 37° C. for 2 h with either buffer Z only (lane 1) or […] protein extract of MCF-7 cells grown exponentially (lane 2) or pretreated for 8 h with […] LLnV (lane 3). (FIG. 9C) The [^35S]-labeled Bax protein (1 μl) was incubated with either buffer Z only (lane 1) or 100 μg MCF-7 cell lysate at 37° C. for 4 h, in the presence of an indicated inhibitor (100 mM; lanes 3-8) or an equal volume of DMSO (lane 2) in buffer Z. A weak band of ˜16 kDa (indicated by an arrow) is probably an intermediate product of proteasome-mediated Bax degradation. (FIG. 9D) The proteasome in MCF-7 whole cell lysate (W lys, lane 1) was precipitated by using either ultraspin (ULS) or a proteasome subunit a6 antibody (IP). Both supernatant (lanes 2, 4) and pellet (lanes 3, 5) fractions were examined by Western blot assay using antibody to the proteasome a6 subunit (MW 33 kDa). (FIG. 9E) Bax degradation assay was performed as in FIG. 9B, with addition of buffer Z (lane 1) or 100 μg protein from MCF-7 whole cell lysate (lane 2), ultraspun supernatant (lane 3) or plus the pellet (lane 4), immunodepleted supernatant (lane 5) or plus a purified 20S proteasome ([…]; lane 6), or the purified proteasome alone (2 μg; lane 7). (FIG. 9F) Bax degradation assay was performed as in FIG. 9B, in the absence (lane 3) or presence of 10 mM ATP (lane 2) or 10 mM ATP-y-S (lane 4).
In vitro Bax Degradation Assay: Human Bax-a cDNA subcloned into pcDNA3 was a gift from Dr. Hong-gang Wang. Human full length of bcl-2-a cDNA was cloned from Jurkat T cells and subcloned into pcDNA3.1(−) as described+. Both bax and bcl-2 plasmids were used for coupled in vitro transcription/translation (Promega; Madison, Wis.) in the presence of [^35S]methionine (Amersham Pharmacia Biotech; Piscataway, N.J.). Protein extracts were prepared from either MCF-7 cells or prostate tumor tissues in buffer Y (50 mM Tris-HCl, pH 7.4, 250 mM NaCl, 1% Triton X-100, 0.1% SDS, 1 mM EDTA), and used for Bax (or Bcl-2) degradation assay. Briefly, 1 microl of [^35S]-labeled Bax (or Bcl-2) protein was incubated at 37° C. for 2-4 hours with 100-200 microg protein extract in buffer Z (50 mM Tris-HCl, pH 7.4, 5 mM MgCl2, 3 mM DTT, 10 mM ATP, 10 mM phosphocreatine, 10 microg/ml creatine phosphokinase, 10 microg/ml aprotinin, 10 microg/ml leupeptin, 10% glycerol and 2 microg/ml ubiquitin). After incubation, the samples were subjected to gel electrophoresis and autoradiography. Under the cell-free assay conditions, the calpain-mediated Bax cleavage activity was blocked by omission of calcium and addition of the protease inhibitor leupeptin (Wood et al, 1998). To deplete the proteasome, MCF-7 cell lysates were either immunoprecipitated with the 20S proteasome subunit a6 antibody or ultracentrifugated at 100,000×g for 6 hours. The proteasome-enriched pellet fraction was resuspended in buffer Y.
To further study the proteasome activity that degrades Bax protein, a cell-free Bax degradation assay was developed by using an in vitro-translated, [^35S]-labeled Bax protein as substrate (FIG. 9B, upper, lane 1). The Bax degradation activity is present in protein extracts prepared from exponentially growing MCF-7 (FIG. 9), K562, VA-13, WI-38, Jurkat T or HL-60 cells. The labeled Bax was almost completely degraded by a MCF-7 cell extract after 2 to 4 hours incubation at 37° C. (FIG. 9B, upper, and FIG. 9C, lanes 2 vs. 1). […]

Another test concerns Jurkat T cells. Kind of test: Western blot and Bax IP/ubiquitin blot in Jurkat T cells. In kind it is cell-based, human. To be noted: 50 microM. How it is done: FIGS. 8A-8D show proteasome inhibition accumulates Bax to mitochondria/cytoplasm and increases interaction between Bax and Bcl-2 proteins. Jurkat cells (0 h; FIG. 8A and FIG. 8B) or Jurkat cells overexpressing Bcl-2 (0 h; FIG. 8C and FIG. 8D) were treated by either 10 μM lactacystin (FIGS. 8A-8C), 50 μM LLnV (FIG. 8D), or 50 μM LLM (FIG. 8A and FIG. 8B) for the indicated hours. (FIG. 8A and FIG. 8B) Western blotting with antibodies to PARP and Bax were performed as described in FIG. 7. (FIG. 8C) Immunohistochemistry (see MATERIALS AND METHODS). Localization of Bax protein (green) and nuclei (red) are shown. (FIG. 8D) Bax immunoprecipitates, prepared by an agarose-conjugated N-20 Bax antibody, were immunoblotted first with the 6A7 Bax antibody (upper) and then reblotted with a Bcl-2 antibody (lower).
as §1, with “4). […]” for “4).”

In the next test the test system is normal WI-38 cells. The test can be described thus: PARP cleavage, cytochrome c release, Bax and p21 in normal fibroblasts. Conditions: LLnL at up to 200 microM, 14 hours. In kind it is cell-based, human. From the text: Proteasome inhibitors activate Bax- and cytochrome c-dependent apoptosis pathway preferentially in transformed human fibroblasts. Normal human fibroblasts are more resistant to proteasome inhibitor-induced apoptosis than transformed and cancer cells (An et al., in press). This is probably due to inability of the normal cells to accumulate Bax protein in response to proteasome inhibition, and consequently failure to release cytochrome c. To test this hypothesis, both SV40-transformed and normal WI-38 cells were treated with 50 microM LLnV for up to 24 hours, followed by measurement of PARP cleavage, cytochrome c release and Bax accumulation. […] In contrast, only after 24 hours treatment, low levels of p85/PARP fragment and cytosolic cytochrome c were detected in normal WI-38 cells (FIGS. 1, A, B, lanes 8-14). […] The levels of Bax/p21 were increased at as early as 4 hours and remained high afterwards. […] The level of another band of ˜47 kDa increased at 4 hours, further increased between 6 and 12 hours, and then decreased (FIG. 1C). The p70 and p47 bands can contain ubiquitinated forms of Bax since similar polypeptides were detected by antibodies to both Bax and ubiquitin (Li et al., 1999). […] Therefore, although unable to activate the Bax- and cytochrome c-dependent apoptotic pathway in response to a low concentration of a proteasome inhibitor, normal cells are capable of undergoing Bax- and cytochrome c-independent apoptosis in response to a proteasome inhibitor at higher concentrations.
SV40-transformed (VA-13) and normal WI-38 cells were treated with 50 microM LLnV or DMSO (letter D) for up to 24 hours, followed by measurement of PARP cleavage (A), cytochrome c release (B) and Bax accumulation (C; also see FIG. 2). Panel D, exponentially grown VA-13 cells were pretreated with 50 microM LLnV or DMSO for 1 hour, washed with methionine-free medium, and then incubated for 30 minutes in methionine-free medium plus 50 microM LLnV (or DMSO). This was followed by replacing fresh methionine-free medium containing 150 microCi/ml of [^35S]-methionine, 10% dialyzed FBS and 50 microM LLnV (or DMSO). Cells were further incubated for 6 hours, followed by preparation of [^35S]-labeled protein lysates and Bax immunoprecipitates (6A7, PharMingen). The labeled Bax bands are indicated. […] Bax-alpha subcloned into pcDNA3 was used for coupled in vitro transcription/translation in the presence of [^35S]methionine. For Bax cleavage assay, the whole cell extracts were prepared. The [^35S]-labeled Bax (0.7 microl) was incubated with 50 microg protein in assay buffer (containing 50 microM LLM and no Ca^2+) for 4 hours at 37° C. Following incubation, the samples were subjected to SDS gel electrophoresis and autoradiography.

Test [1] relates to simian virus 40-transformed and parental normal human fibroblasts. To be noted: but not the parental normal; cited from earlier work.
For test [2], the system named is human Jurkat T cells overexpressing Bcl-2 and human prostate, breast, tongue and brain tumor cell lines. To be noted: cited from earlier work; for apoptosis induction / cell kill: low concentrations, same conditions for etoposide.

Where a SMILES comes first, the peptide text is derived from it. [ ]: non-standard residue; d: D form. The star is where a group is joined. Nle = CCCC[C@H](N)C(=O)O; Cbz = O=C(OCc1ccccc1)*

`O=S(=O)(F)Cc1ccccc1` [phenylmethylsulfonyl fluoride]: the Bax degradation process/activity result in the test on Bax degradation activity is on record as “not inhibited”.
With `CSCCC(C=O)NC(=O)C(CC(C)C)NC(=O)C(CC(C)C)NC(C)=O` (stereo not drawn) [LLM] (Ac-Leu-Leu-Met-aldehyde; configuration not given here), in the test on Bax degradation activity, the Bax degradation process/activity result was “not”. Besides, the “Bax accumulation and PARP cleavage” value with Jurkat T cells is given as “had no such effects”.
Regarding aprotinin, the Bax degradation process/activity entry with Bax degradation activity is “not inhibited”.
Regarding `CC(C)C[C@@H](C=O)NC(=O)[C@H](CC(C)C)NC(=O)[C@H](CC(C)C)NC(=O)OCc1ccccc1` [LLL] (Cbz-Leu-Leu-Leu-aldehyde), the Bax degradation process/activity result with Bax degradation activity is on record as “blocked”.
For `CC(=O)N[C@@H](CC(=O)O)C(=O)N[C@@H](CCC(=O)O)C(=O)N[C@H](C(=O)N[C@@H](CC(=O)O)C(=O)CF)C(C)C` [acetyl-DEVD-fluoromethyl ketone], the Bax degradation process/activity entry with Bax degradation activity is reported as “not inhibited”.
On to `CC(=O)N[C@@H](Cc1ccc(O)cc1)C(=O)N[C@H](C(=O)N[C@@H](C)C(=O)N[C@@H](CC(=O)O)C(=O)CCl)C(C)C` [acetyl-YVAD-chloromethyl ketone], for which the Bax degradation process/activity entry in the test with Bax degradation activity is recorded as “not inhibited”.
Regarding `CC(C)[C@H](O)[C@@]12NC(=O)[C@H](C)[C@@H]1OC2=O` [b-lactone, clasto-lactacyctin b-lactone], in the test with Bax degradation activity, the Bax degradation process/activity result was “blocked”.
Regarding `CCCC[C@@H](C=O)NC(=O)[C@H](CC(C)C)NC(=O)[C@H](CC(C)C)NC(C)=O` [LLnL] (Ac-Leu-Leu-[Nle]-aldehyde), the Bax degradation process/activity result with Bax degradation activity was “blocked”. Besides, in the test with normal WI-38 cells, the “apoptosis as judged by PARP cleavage” value is “underwent apoptosis”; the “cytochrome c release and Bax accumulation” value is reported as “neither release cytochrome c nor accumulate Bax”; the “levels of the cdk inhibitor p21” value is on record as “significantly increased”.
On to `CC(=O)N[C@@H](CC(C)C)C(=O)N[C@@H](CC(C)C)C(=O)N[C@H](C=O)CCCNC(=N)N` [leupeptin], for which the Bax degradation process/activity result in the test with Bax degradation activity is recorded as “not inhibited”.
On to `CC(C)C[C@@H](C=O)NC(=O)[C@H](CCCN=C(N)N[N+](=O)[O-])NC(=O)C(CCCCCCCCN1C(=O)c2ccccc2C1=O)C1CCCC1` (some centres unmarked) [CEP1612], for which the “p27 accumulation and apoptosis” value in test [1] was “selectively accumulates p27 and induces apoptosis”. For the same compound, the “cyclin-dependent kinase inhibitors p21 and p27” value in test [2] (associated with CEP1612-induced apoptosis) is “accumulation of the cyclin-dependent kinase inhibitors p21 and p27”. In addition, in test [2], the “apoptosis induction / cell kill” value is on record as “rapidly induces apoptosis”.
`N=C(N)c1ccccc1` [benzamidine]: in the test on Bax degradation activity, the Bax degradation process/activity entry is listed as “not inhibited”.
On to tosyl-L-lysine chloromethyl ketone, for which, in the test with Bax degradation activity, the Bax degradation process/activity entry is “not inhibited”.
On to `COc1cc([C@@H]2c3cc4c(cc3[C@@H](O[C@@H]3O[C@@H]5CO[C@@H](C)O[C@H]5[C@H](O)[C@H]3O)[C@H]3COC(=O)[C@H]23)OCO4)cc(OC)c1O` [etoposide], for which the “apoptosis induction / cell kill” value in test [2] is “fails to kill these cells”.
For `CCN1C(=O)C=CC1=O` [N-ethylmaleimide], the Bax degradation process/activity result in the test on Bax degradation activity is recorded as “not inhibited”.

The values above are taken from patent publication US6692927B2, “Bax degradation involvement in tumor survival and progression” (University of South Florida, priority 2000, dated 2004).
